Experimental data taken from patent US20230061736A1, “GPR119 AGONISTS” (Kallyope, Inc., priority 2019, published 2023).

Target: T1, human GPR119 (hGPR119) (Homo sapiens, UniProt Q8TDV5)
T1 construct: expressed in transfected cells
T1 sequence (Q8TDV5 1-335): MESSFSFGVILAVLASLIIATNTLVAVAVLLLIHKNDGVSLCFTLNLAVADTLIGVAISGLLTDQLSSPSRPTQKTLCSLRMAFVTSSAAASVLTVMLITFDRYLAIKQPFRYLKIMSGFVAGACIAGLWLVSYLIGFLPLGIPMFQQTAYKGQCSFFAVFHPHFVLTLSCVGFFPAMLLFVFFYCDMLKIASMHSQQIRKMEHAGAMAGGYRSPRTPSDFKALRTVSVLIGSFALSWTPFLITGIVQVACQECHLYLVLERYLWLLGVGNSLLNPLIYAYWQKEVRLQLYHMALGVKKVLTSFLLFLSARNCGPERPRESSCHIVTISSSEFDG
Assay: cAMP accumulation assay (cAMP Gs dynamic HTRF kit)
Type: cell-based
Settings: CHO-K1 cells stably expressing hGPR119, 4-parameter fit; for Emax: 1 h, % activity normalized to Max/Min controls; for EC50: cAMP accumulation
In short: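 CHO-K1 cells stably expressing hGPR119, used as assay-ready frozen stocks at ~10,000 cells/well, exposed to compound dose-response in stimulation buffer with Tween 80 for 60 min at 37° C. cAMP read by HTRF (665/620 nm ratio), normalised to Max/Min controls; EC50 and Max activity from 4-parameter fit.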

| Compound | Emax [%] | EC50 [nM] |
| --- | --- | --- |
| O=C(Cc1ccc(OCCCC2CCN(c3ncc(Cl)cn3)CC2)cc1F)N1CCC(O)(C(=O)NCC(CO)(CO)CO)C1 (stereo not drawn) [Example 182, 1-[2-[4-[3-[1-(5-chloropyrimidin-2-yl)-4-piperidyl]propoxy]-2-fluoro-phenyl]acetyl]-3-hydroxy-N-[3-hydroxy-2,2-bis (hydroxymethyl)propyl]pyrrolidine-3-carboxamide] | 100 to 130 | ≤ 100 |
| CCOc1cnc(N2CCC(CCCOc3ccc(CC(=O)N4CC(CC(=O)NCC(O)(CO)CO)C4)c(F)c3)CC2)nc1 [Example 108, N-[2,3-dihydroxy-2-(hydroxymethyl)propyl]-2-[1-[2-[4-[3-[1-(5-ethoxypyrimidin-2-yl)-4-piperidyl]propoxy]-2-fluoro-phenyl]acetyl]azetidin-3-yl]acetamide] | 100 to 130 | ≤ 100 |
| COCc1cnc(N2CCC(CCCOc3ccc(CC(=O)N4CC(C(=O)NC[C@H](O)[C@@H](O)[C@H](O)[C@H](O)CO)C4)c(F)c3)CC2)nc1 (racemic) [Example 39, 1-[2-[2-fluoro-4-[3-[1-[5-(methoxymethyl)pyrimidin-2-yl]-4-piperidyl]propoxy]phenyl]acetyl]-N-[rac-(2S,3R,4R,5R)-2,3,4,5,6-pentahydroxyhexyl]azetidine-3-carboxamide] | 100 to 130 | 100 to 1000 |
| O=C(Cc1ccc(OCCCC2CCN(c3ncc(Cl)cn3)CC2)cc1F)N1CC(CCNC[C@H](O)[C@H](O)[C@H](O)CO)C1 [Example 164, 2-[4-[3-[1-(5-chloropyrimidin-2-yl)-4-piperidyl]propoxy]-2-fluoro-phenyl]-1-[3-[2-[[(2S,3S,4R)-2,3,4,5-tetrahydroxypentyl]amino]ethyl]azetidin-1-yl]ethanone] | 100 to 130 | ≤ 100 |
| O=C(NCCO[C@H]1O[C@H](CO)[C@@H](O)[C@H](O)[C@@H]1O)C1CN(C(=O)Cc2ccc(OCCCC3CCN(c4ncc(Cl)cn4)CC3)cc2F)C1 (racemic) [Example 31, 1-[2-[4-[3-[1-(5-chloropyrimidin-2-yl)-4-piperidyl]propoxy]-2-fluoro-phenyl]acetyl]-N-[2-[rac-(2S,3S,4S,5S,6R)-3,4,5-trihydroxy-6-(hydroxymethyl)tetrahydropyran-2-yl]oxyethyl]azetidine-3-carboxamide] | 100 to 130 | 100 to 1000 |
| O=C(Cc1ccc(OCCCC2CCN(c3ncc(Cl)cn3)CC2)cc1F)N1CC(CCNC(CO)(CO)CO)C1 [Example 59, 2-(4-(3-(1-(5-chloropyrimidin-2-yl)piperidin-4-yl)propoxy)-2-fluorophenyl)-1-(3-(2-((1,3-dihydroxy-2-(hydroxymethyl)propan-2-yl)amino)ethyl)azetidin-1-yl)ethan-1-one] | 100 to 130 | 100 to 1000 |
| O=C(Cc1ccc(OCCCC2CCN(c3ncc(Cl)cn3)CC2)cc1F)N1CC(CN2C[C@@H](O)[C@@H](O)C2)C1 [Example 48, 2-[4-[3-[1-(5-chloropyrimidin-2-yl)-4-piperidyl]propoxy]-2-fluoro-phenyl]-1-[3-[[rac-(3S,4R)-3,4-dihydroxypyrrolidin-1-yl]methyl]azetidin-1-yl]ethanone] | 100 to 130 | ≤ 100 |
| CCc1cnc(N2CCC(CCOCc3ccc(CC(=O)N4CC(CNC[C@@H](O)[C@H](O)[C@@H](O)[C@@H](O)CO)C4)c(F)c3)CC2)nc1 [Example 88] | 50 to 100 | 1000 to 10000 |
| O=C(Cc1ccc(OCCC2CC3(CCN(c4ncc(Cl)cn4)CC3)C2)cc1F)N1CC(CNC[C@H](O)[C@@H](O)[C@H](O)[C@H](O)CO)C1 [Example 104, 2-[4-[2-[7-(5-chloropyrimidin-2-yl)-7-azaspiro[3.5]nonan-2-yl]ethoxy]-2-fluoro-phenyl]-1-[3-[[[(2S,3R,4R,5R)-2,3,4,5,6-pentahydroxyhexyl]amino]methyl]azetidin-1-yl]ethanone] | 100 to 130 | 100 to 1000 |
| O=C(Cc1c(F)cc(OCCCC2CCN(c3ncc(Cl)cn3)CC2)cc1F)N1CC(CNC[C@H](O)[C@@H](O)[C@H](O)[C@H](O)CO)C1 [Example 53, 2-[4-[3-[1-(5-chloropyrimidin-2-yl)-4-piperidyl]propoxy]-2,6-difluoro-phenyl]-1-[3-[[[(2S,3R,4R,5R)-2,3,4,5,6-pentahydroxyhexyl]amino]methyl]azetidin-1-yl]ethanone] | ≥ 130 | ≤ 100 |
| CCCc1cnc(N2CCC(CCCOc3cc(F)c(CC(=O)N4CC(CNCC(O)(CO)CO)C4)c(F)c3)CC2)nc1 [Example 75, 2-(2,6-difluoro-4-(3-(1-(5-propylpyrimidin-2-yl)piperidin-4-yl)propoxy)phenyl)-1-(3-(((2,3-dihydroxy-2-(hydroxymethyl)propyl)amino)methyl)azetidin-1-yl)ethan-1-one] | 100 to 130 | ≤ 100 |
| O=C(OCCC1CCN(c2ncc(Cl)cn2)CC1)c1ccc(CC(=O)N2CC(CNC[C@H](O)[C@@H](O)[C@H](O)[C@H](O)CO)C2)c(F)c1 (racemic) [Example 91, 2-[1-(5-chloropyrimidin-2-yl)-4-piperidyl]ethyl 3-fluoro-4-[2-oxo-2-[3-[[[rac-(2S,3R,4R,5R)-2,3,4,5,6-pentahydroxyhexyl]amino]methyl]azetidin-1-yl]ethyl]benzoate] | 100 to 130 | 1000 to 10000 |
| O=C(Cc1c(F)cc(OCCCC2CCN(c3ncc(Cl)cn3)CC2)cc1F)N1CC[C@@H](CNCC(CO)(CO)CO)C1 [Example 151, 2-[4-[3-[1-(5-chloropyrimidin-2-yl)-4-piperidyl]propoxy]-2,6-difluoro-phenyl]-1-[(3S)-3-[[[3-hydroxy-2,2-bis(hydroxymethyl)propyl]amino]methyl]pyrrolidin-1-yl]ethanone] | ≥ 130 | ≤ 100 |

Results, then the compound that gave them:

| Emax [%] | EC50 [nM] | Compound |
| --- | --- | --- |
| ≥ 130 | 100 to 1000 | O=C(Cc1ccc(OCCCC2CCN(c3ncc(Cl)cn3)CC2)cc1F)NCCCC(=O)NC(CO)CO [Example 21, 4-[[2-[4-[3-[1-(5-chloropyrimidin-2-yl)-4-piperidyl]propoxy]-2-fluoro-phenyl]acetyl]amino]-N-[2-hydroxy-1-(hydroxymethyl)ethyl]butanamide] |
| 100 to 130 | ≤ 100 | COCc1cnc(N2CCC(CCCOc3cc(F)c(CC(=O)N4CC[C@@H](CNC(CO)(CO)CO)C4)c(F)c3)CC2)nc1 [Example 158, 2-[2,6-difluoro-4-[3-[1-[5-(methoxymethyl)pyrimidin-2-yl]-4-piperidyl]propoxy]phenyl]-1-[(3S)-3-[[[2-hydroxy-1,1-bis(hydroxymethyl)ethyl]amino]methyl]pyrrolidin-1-yl]ethanone] |
| 100 to 130 | 1000 to 10000 | O=C(Cc1ccc(OCCCC2CCC23CCN(c2ncc(Cl)cn2)CC3)cc1F)N1CC(CNC[C@H](O)[C@@H](O)[C@H](O)[C@H](O)CO)C1 (stereo partly drawn) [Example 144, 2-[4-[3-[7-(5-chloropyrimidin-2-yl)-7-azaspiro[3.5]nonan-3-yl]propoxy]-2-fluoro-phenyl]-1-[3-[[[(2S,3R,4R,5R)-2,3,4,5,6-pentahydroxyhexyl]amino]methyl]azetidin-1-yl]ethanone] |
| ≥ 130 | ≤ 100 | CCc1cnc(N2CCC(CCCOc3cc(F)c(CC(=O)N4CC(CNCCNC(=O)NC(CO)(CO)CO)C4)c(F)c3)CC2)nc1 [Example 68, 1-(1,3-dihydroxy-2-(hydroxymethyl)propan-2-yl)-3-(2-(((1-(2-(4-(3-(1-(5-ethylpyrimidin-2-yl)piperidin-4-yl)propoxy)-2,6-difluorophenyl)acetyl)azetidin-3-yl)methyl)amino)ethyl)urea] |
| 100 to 130 | 100 to 1000 | O=C(CC1CN(C(=O)Cc2ccc(OCCCC3CCN(c4ncc(Cl)cn4)CC3)cc2F)C1)NCCS(=O)(=O)O [Example 176, 2-[[2-[1-[2-[4-[3-[1-(5-chloropyrimidin-2-yl)-4-piperidyl]propoxy]-2-fluoro-phenyl]acetyl]azetidin-3-yl]acetyl]amino]ethanesulfonic acid] |
| 100 to 130 | 100 to 1000 | O=C(OC[C@@H]1C[C@@H]1C1CCN(c2ncc(Cl)cn2)CC1)c1ccc(CC(=O)N2CC(CNC[C@H](O)[C@@H](O)[C@H](O)[C@H](O)CO)C2)c(F)c1 (racemic) [Example 95, (1R,2R)-2-[1-(5-chloropyrimidin-2-yl)-4-piperidyl]cyclopropyl]methyl 3-fluoro-4-[2-oxo-2-[3-[[[rac-(2S,3R,4R,5R)-2,3,4,5,6-pentahydroxyhexyl]amino]methyl]azetidin-1-yl]ethyl]benzoate] |
| 100 to 130 | ≤ 100 | O=C(CC1(O)CN(C(=O)Cc2ccc(OCCCC3CCN(c4ncc(Cl)cn4)CC3)cc2F)C1)NCC(CO)(CO)CO [Example 184, 2-[1-[2-[4-[3-[1-(5-chloropyrimidin-2-yl)-4-piperidyl]propoxy]-2-fluoro-phenyl]acetyl]-3-hydroxy-azetidin-3-yl]-N-[3-hydroxy-2,2-bis(hydroxymethyl)propyl]acetamide] |
| < 50 | > 10000 | CC(C)OC(=O)N1CCC2(CCC2CCOc2ccc(CC(=O)N3CC(CNC[C@H](O)[C@@H](O)[C@H](O)[C@H](O)CO)C3)c(F)c2)CC1 (stereo partly drawn) [Example 140, isopropyl 3-[2-[3-fluoro-4-[2-oxo-2-[3-[[[(2S,3R,4R,5R)-2,3,4,5,6-pentahydroxyhexyl]amino]methyl]azetidin-1-yl]ethyl]phenoxy]ethyl]-7-azaspiro[3.5]nonane-7-carboxylate] |
